From patent US5120738A, “Pantothenic acid derivatives” (Fujirebio Inc., priority 1990, dated 1992)

Target: T1, acyl CoA-cholesterol-acyltransferase (ACAT) (Rattus norvegicus, UniProt Q7TQM4)
T1 construct: a microsome fraction prepared from a rat liver; from tissue; host or cells: rat liver microsome fraction
T1 sequence (Q7TQM4 1-524): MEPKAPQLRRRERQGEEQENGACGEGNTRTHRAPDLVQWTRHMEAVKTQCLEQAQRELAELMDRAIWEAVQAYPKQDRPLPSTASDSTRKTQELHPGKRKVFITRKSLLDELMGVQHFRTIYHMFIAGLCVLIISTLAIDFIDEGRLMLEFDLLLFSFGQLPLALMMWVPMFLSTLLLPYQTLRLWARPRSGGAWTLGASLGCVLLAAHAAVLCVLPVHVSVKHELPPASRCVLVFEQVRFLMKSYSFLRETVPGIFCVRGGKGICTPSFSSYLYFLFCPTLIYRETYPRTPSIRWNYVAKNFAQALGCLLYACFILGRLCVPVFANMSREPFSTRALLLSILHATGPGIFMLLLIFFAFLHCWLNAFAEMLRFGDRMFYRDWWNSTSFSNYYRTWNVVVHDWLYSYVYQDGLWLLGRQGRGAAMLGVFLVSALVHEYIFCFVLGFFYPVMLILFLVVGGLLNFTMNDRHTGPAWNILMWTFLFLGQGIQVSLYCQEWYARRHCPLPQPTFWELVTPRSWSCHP
Test: ACAT inhibition test (cholesteryl oleate formed from [1-14C]oleoylCoA, rat liver microsome fraction)
Format: biochemical
Details: for inhibition at 1 µM: 10^-6 M test drug, 37° C., 4 minutes, relative to control without test compound; for IC50: in square brackets behind the % inhibition, range in parentheses not explained, read-out: ACAT inhibition [IC50 × 10^-7 M]
Description: ACAT inhibition tests were carried out by measuring cholesteryl oleate produced from [1-^14 C]oleoylCoA and endocellular cholesterol similarly to the method of Helgerud et al. [cf.
Thereafter, 4.2 ml of methanol and 8.3 ml of chloroform were added to the reaction mixture to stop the reaction. Then, 2.5 ml of water was added and after shaking the mixture sufficiently a chloroform layer was separated. After concentrating it, the chloroform layer was subjected to thin layer chromatography. The cholesteryl oleate formed was separated and its radioactivity was measured by a liquid scientilaltion counter.
On the other hand, the same tests as above were repeated without using test compounds. The radioactivity of the control thus obtained was used as a standard for calculating the ACAT inhibiting activity of each test compound.

| SMILES | inhibition at 1 µM | IC50 |
| --- | --- | --- |
| CCCCCCCC/C=C\CCCCCCCC(=O)N1CCCC(NC(=O)CCNC(=O)C2OC(C)(C)OCC2(C)C)C1 (single isomer, unassigned) [Example 171] | 61.1% |  |
| CCCCCCCC/C=C\CCCCCCCC(=O)Nc1ccccc1NC(=O)CCNC(=O)C(OC(C)=O)C(C)(C)COC(C)=O (stereo not drawn) [Example 2, N-[2-(Oleoylamino)phenyl]-3-[N-(2,4-diacetoxy-3,3-dimethyl-1-oxobutyl)amino]propanamide] | 64.8% | 274 nM |
| CC/C=C\C/C=C\C/C=C\CCCCCCCC(=O)Nc1ccccc1NC(=O)CCNC(=O)C1OC(C)(C)OCC1(C)C (stereo not drawn) [Example 5] | 56% |  |
| CCCCCCCC/C=C\CCCCCCCC(=O)NCCCCNC(=O)CCNC(=O)C1OC(C)(C)OCC1(C)C (stereo not drawn) [Example 37, N-(4-Oleoylaminobutyl)-3-[N-(2,2,5,5-tetramethyl-1,3-dioxane-4-carbonyl)amino]propanamide] |  | 286 nM |
| CCCCCCCC/C=C\CCCCCCCC(=O)N[C@H]1CCCC[C@@H]1NC(=O)CCNC(=O)C1OC(C)(C)OCC1(C)C (stereo partly drawn) [Example 70, N-[(1S,2S)-2-(Oleoylamino)cyclohexane]-3-[N-(2,2,5,5-tetramethyl-1,3-dioxane-4-carbonyl)amino]propanamide] |  | 162 nM |
| CCCCCCCC/C=C\CCCCCCCC(=O)N[C@H]1CCCC[C@@H]1NC(=O)CCNC(=O)[C@H](OC(C)=O)C(C)(C)COC(C)=O [Example 71] |  | 198 nM |
| CCCCCCCC/C=C\CCCCCCCC(=O)N[C@H]1CCCC[C@@H]1NC(=O)CCNC(=O)[C@H](O)C(C)(C)CO [Example 74, N-[(1S,2S)-2-(Oleoylamino)cyclohexane-1-yl]-3-[N-[(2R)-2,4-dihydroxy-3,3-dimethyl-1-oxobutyl]amino]propanamide] |  | 155 nM |
| CCCCC/C=C\C/C=C\CCCCCCCC(=O)N[C@H]1CCCC[C@@H]1OC(=O)CCNC(=O)C1OC(C)(C)OCC1(C)C (stereo partly drawn) [Example 80, (1S,2S)-2-(Linoleoylamino)cyclohexane-1-yl 3-[N-(2,2,5,5-tetramethyl-1,3-dioxane-4-carbonyl)amino]propionate] |  | 108 nM |
| CCCCCCCC/C=C\CCCCCCCC(=O)NC[C@@H]1CCCN1C(=O)CCNC(=O)C(O)C(C)(C)CO (stereo partly drawn) [Example 166] | 65.7% |  |
| CCCCCCCC/C=C\CCCCCCCC(=O)NC[C@H]1CCCN1C(=O)CCNC(=O)C1OC(C)(C)OCC1(C)C (stereo partly drawn) [Example 167] | 64% |  |
| CCCCCCCC/C=C\CCCCCCCC(=O)NC1CCCN(C(=O)CCNC(=O)C2OC(C)(C)OCC2(C)C)C1 (stereo not drawn) [Example 168] | 75.7% |  |
| CCCCCCCC/C=C\CCCCCCCC(=O)NC1CCCN(C(=O)CCNC(=O)C(O)C(C)(C)CO)C1 (stereo not drawn) [Example 169] | 58.3% |  |
| CCCCCCCC/C=C\CCCCCCCC(=O)N1CCN(C(=O)CCNC(=O)C(O)C(C)(C)CO)CC1 (stereo not drawn) [Example 193] | 18.9% |  |
| CCCCCCCC/C=C\CCCCCCCC(=O)N1CCCN(C(=O)CCNC(=O)C(OC(C)=O)C(C)(C)COC(C)=O)CC1 (stereo not drawn) [Example 194, 1-Oleoyl-4-(1-oxo-3-N-(1-oxo-2,4-diacetoxy-3,3-dimethylbutyl)aminopropyl)tetrahydro-1,4-diazepine] | 62.6% |  |
| CCCCCCCC/C=C\CCCCCCCC(=O)N1CCCN(C(=O)CCNC(=O)C(O)C(C)(C)CO)CC1 (stereo not drawn) [Example 195] | 48.7% |  |
| CCCCCCCCC=CCCCCCCCNC(=O)N1CCN(C(=O)CCNC(=O)C2OC(C)(C)OCC2(C)C)CC1 (stereo not drawn) [Example 198] | 84.3% |  |
| CCCCCCCCCCC(C)C(=O)N1CCN(C(=O)CCNC(=O)C2OC(C)(C)OCC2(C)C)CC1 (stereo not drawn) [Example 199] | 53.7% |  |

Second part, the molecule after the results:

| inhibition at 1 µM | IC50 | SMILES |
| --- | --- | --- |
|  | 295 nM | CCCCCCCC/C=C\CCCCCCCC(=O)Nc1ccccc1NC(=O)CCNC(=O)C1OC(C)(C)OCC1(C)C (stereo not drawn) [Example 1, N-[2-(Oleoylamino)phenyl]-3-[N-(2,2,5,5-tetramethyl-1,3-dioxane-4-carbonyl)amino]propanamide] |
| 79.8% |  | CCCCC/C=C\C/C=C\CCCCCCCC(=O)Nc1ccccc1NC(=O)CCNC(=O)C1OC(C)(C)OCC1(C)C (stereo not drawn) [Example 4, N-2-(Linoleoylamino)phenyl]-3-[[N-(2,2,5,5-tetramethyl-1,3-dioxane-4-carbonyl)amino]propanamide] |
| 51.8% |  | CCCCC/C=C\C/C=C\CCCCCCCC(=O)Nc1cccc(NC(=O)CCNC(=O)C2OC(C)(C)OCC2(C)C)c1 (stereo not drawn) [Example 9, [N-3-(Linoleylamino)phenyl]-3-[N-(2,2,5,5-tetramethyl-1,3-dioxane-4-carbonyl)amino]propanamide] |
| 79.6% |  | CCCCCCCC/C=C\CCCCCCCC(=O)Nc1ccccc1OC(=O)CCNC(=O)C1OC(C)(C)OCC1(C)C (stereo not drawn) [Example 15, 2-(Oleoylamino)phenyl 3-[N-(2,2,5,5-tetramethyl-1,3-dioxane-4-carbonyl)amino]propionate] |
|  | 299 nM | CCCCCCCC/C=C\CCCCCCCC(=O)NCCNC(=O)CCNC(=O)C1OC(C)(C)OCC1(C)C (stereo not drawn) [Example 33] |
|  | 385 nM | CCCCCCCC/C=C\CCCCCCCC(=O)NCCCNC(=O)CCNC(=O)C1OC(C)(C)OCC1(C)C (stereo not drawn) [Example 34] |
|  | 686 nM | CCCCCCCC/C=C\CCCCCCCC(=O)NCCOC(=O)CCNC(=O)C1OC(C)(C)OCC1(C)C (stereo not drawn) [Example 44, 2-(N-Oleoylamino)ethyl 3-[N-(2,2,5,5-tetramethyl-1,3-dioxane-4-carbonyl)amino]propionate] |
|  | 250 nM | CCCCCCCC/C=C\CCCCCCCC(=O)NCCCOC(=O)CCNC(=O)C1OC(C)(C)OCC1(C)C (stereo not drawn) [Example 47, 3-(N-oleoylamino]propyl 3-[N-(2,2,5,5-tetramethyl-1,3-dioxane-4-carbonyl)amino]propionate] |
|  | 355 nM | CCCCCCCC/C=C\CCCCCCCC(=O)NCCCCCOC(=O)CCNC(=O)C1OC(C)(C)OCC1(C)C (stereo not drawn) [Example 66] |
|  | 389 nM | CCCCCCCC/C=C\CCCCCCCC(=O)NCCCCCCOC(=O)CCNC(=O)C1OC(C)(C)OCC1(C)C (stereo not drawn) [Example 67] |
|  | 210 nM | CCCCCCCC/C=C\CCCCCCCC(=O)N[C@@H]1CCCC[C@H]1OC(=O)CCNC(=O)C1OC(C)(C)OCC1(C)C (stereo partly drawn) [Example 77, (1R,2R)-2-(Oleoylamino)cyclohexane-1-yl 3-[N-(2,2,5,5-tetramethyl-1,3-dioxane-4-carbonyl)amino]propionate] |
|  | 40.1 nM | CCCCCCCC/C=C\CCCCCCCC(=O)N[C@H]1CCCC[C@@H]1OC(=O)CCNC(=O)C1OC(C)(C)OCC1(C)C (stereo partly drawn) [Example 78, (1S,2S)-2-(Oleoylamino)cyclohexane-1-yl 3-[N-(2,2,5,5-tetramethyl-1,3-dioxane-4-carbonyl)amino]propionate] |
